Test results: patent US20240238212A1, “LIPID COMPOUNDS AND LIPID NANOPARTICLE COMPOSITIONS” (SUZHOU ABOGEN BIOSCIENCES CO., LTD., priority 2022, published 2024)
Where “and” joins values, the source holds several entries; their conditions need not be identical. Equal values may be shown once. Entries after “also recorded” stand apart in the source; their conditions may differ.

Columns and labels:
[1] = mouse, in vivo
Experimental: LNPs were injected into mice via the tail vein (ICR female, IV, 0.5 mg mRNA/kg), then mice were anesthetized under carbon dioxide at different time (e.g., 6 h, 24 h, and 48 h) after administration and sacrificed via cardiac puncture. Liver tissue were collected immediately, and then washed by ice-cold saline. Liver samples were weighed and homogenized in ice water bath by adding pre-chilled 20% methanol-water (v/v) at 2˜8° C. with the ratio of 1:5 (w/v). The homogenized tissue samples were stored in −90˜−60° C. freezer prior to analysis.
All liver tissue homogenate samples were allowed to thaw at room temperature. An aliquot of 50 μL of sample was added with 50 μL MgCl2 (2M), then added with ACN which contains of Verapamil, 5 ng mL-1 and Glibenclamide, 50 ng mL-1 and Diclofenac, 200 ng mL^−1 and Tolbutamide, 200 ng mL^−1 for protein precipitation, then centrifuged at 13000 rpm for 8 min. Then 100 μL of supernatant was added with 100 μL water, then vortexed well. An aliquot of 5 μL of the mixture was injected into the LC-MS/MS system.

[2] = Lipid nanoparticle size and polydispersity by dynamic light scattering; assay type: physicochemical; conditions: LNP comprising the compound, luciferase mRNA
Outline: (§1)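 Ribogreen fluorescence quantifies encapsulated mRNA and backscatter (173°) DLS sizes the particles. These are microfluidically mixed four-component LNPs in DPBS after dialysis.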

[3] = Encapsulation efficiency of lipid nanoparticles (Quant-it Ribogreen RNA assay); assay type: physicochemical; conditions: LNP comprising the compound, luciferase mRNA
Outline: as §1

[4] = Apparent pKa of LNP formulations (TNS fluorescence assay); assay type: physicochemical; conditions: LNP formulation, TNS assay (Table 3)
Outline: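 LNPs (cationic lipid/DSPC/cholesterol/DMG-PEG 50/10/38.5/1.5 mol %) diluted to 0.1 mg/mL total lipid in citrate/phosphate/borate/NaCl buffers spanning pH 3–9 with TNS. Fluorescence (ex 325, em 435 nm) read at room temperature; pKa taken as the pH at half-maximal intensity from sigmoidal fit.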

[5] = system: luciferase mRNA expression; assay: Animal Study 2: luciferase mRNA LNPs i.v. in mice, optical imaging; assay type: in vivo; conditions: female Balb/c mice, 0.25 mg/kg tail vein injection, e.g. 6 hours; relative to MC3 LNP
Experimental: (§2) Lipid nanoparticles comprising compounds in the following table encapsulating mRNA encoding luciferase were systemically administered to 6-8 week old female Balb/c mice (Charles River Lab, ZheJiang) at 0.25 mg/kg dose by tail vein injection and mice blood were sampled at specific time points (e.g., 6 hours) post administration. Optical imaging was performed using the IVIS Spectrum CT device (PerkinElmer Inc., Paris, France). The luminescence level was evaluated by an ROI applied to the injection site zone (Living Image software, PerkinElmer Inc., Paris, France). In addition to the aforementioned tested groups, lipid nanoparticles comprising dilinoleylmethyl-4-dimethylaminobutyrate (other names: DLin-MC3-DMA or MC3) encapsulating luciferase mRNA were similarly administered at the same dose to age and gender comparative groups of mice as a positive control.
Characteristics of tested lipid nanoparticles, including luciferase expression levels over MC3 measured from the tested group are listed in the table below.

[6] = system: luciferase mRNA expression; assay: Animal Study 2: bioluminescence of dissected organs; assay type: in vivo, Balb/c mice
Experimental: as §2
Radiance of heart, liver, spleen, lung, kidney, brain and bone marrow were taken at 6 h after administration. The Dissected organs were placed on a black sheet and imaged with IVIS Spectrum CT (PerkinElmer, Hopkinton, MA). To quantify bioluminescence emission signal, identical regions of interest (ROI) were positioned to encircle each organ region, the imaging signal was quantitated as Total Flux [p/s].

[7] = dissected organ, 6 h after administration, 0.25 mg/kg i.v., ROI 1-3, 0.25 mg/kg

| % Dose Remaining in Liver Tissue, 6 h ([1]; 6 h) [%] | % Dose Remaining in Liver Tissue, 24 h ([1]; 24 h) [%] | % Dose Remaining in Liver Tissue, 48 h ([1]; 48 h) [%] | Polydispersity [2] | Size (nm) [2] [nm] | Encapsulation efficiency [3] [%] | Apparent pKa [4] | Compound | luciferase expression over MC3 [5] | Total Flux [p/s], Brain [6, 7] | Total Flux [p/s], Liver [6, 7] | Total Flux [p/s], Lung [6, 7] | Total Flux [p/s], bone marrow [6, 7] | luciferase expression in organs (in words) ([6]; nanoparticle comprising the compound, organs 6 h after administration) |
| --- | --- | --- | --- | --- | --- | --- | --- | --- | --- | --- | --- | --- | --- |
| 69.39 | 61.63 | 52.47 | – | – | – | – | CCCCC/C=C\C/C=C\CCCCCCCCC(CCCCCCCC/C=C\C/C=C\CCCCC)OC(=O)CCCN(C)C [MC3, dilinoleylmethyl-4-dimethylaminobutyrate] | – | – | – | – | – | – |
| – | – | – | 0.069 | 113.16 | 88.12 | 6.762 | CCCCCCCCSSCCOC(=O)CCCCCN(CCCCCO)CCCCC(COC(=O)CCCCCCC)COC(=O)CCCCCCC [Compound 76] | B (≥1 and <2) | 4.60E+06 p/s and 4.15E+06 p/s and 5.13E+06 p/s | 1.40E+09 p/s and 9.82E+08 p/s and 1.38E+09 p/s | 5.18E+06 p/s and 5.48E+06 p/s and 4.33E+06 p/s | 2.09E+06 p/s and 3.07E+06 p/s and 2.94E+06 p/s | significant transduction and luciferase expression were observed in liver and spleen; also recorded: high absolute expression in the heart, spleen, lung, kidney, brain |
